Experimental data published in US11589603B2, “Powdered nutritional product containing branched-chain amino acids and a sugar alcohol” (Abbott Laboratories, priority 2015, dated 2023).
Each block holds one compound with its values, some of them ahead of it.

What was measured:
Format in all cases: physicochemical
[1] = Example 4: aqueous dissolution of branched-chain amino acids in a powdered nutritional product with varying myo-inositol, LC/UV of filtrate; settings: 17.6 g powdered nutritional product, water 21° C., 400 rpm
Procedure: (§1) The LC/UV system used to perform the tests comprised the following: 1) Column: YMC ODS-AQ, 4.6 x 250 mm, 5 μm, Waters P/N AQ12S052546WT; 2) Mobile Phase: Milli-Q Plus water; 3) Flow Rate: 0.4 mL/minute; 4) Temperature: 40° C.; 5) Detection: UV at 192 nm; 6) Injection: 2 μL of filtrate; and 7) Run Time: 20 minutes.
Example 4 evaluates the effect that myo-inositol concentration has on the aqueous dissolution of branched-chain amino acids (valine, isoleucine, and leucine) in a powdered nutritional product. One serving (17.6 grams) of the powdered nutritional product contains 7.00 grams of a branched-chain amino acid blend comprising 50 wt. % leucine, 25 wt. % isoleucine, and 25 wt. % valine. A serving of the powdered nutritional product with a specified amount of myo-inositol was added to 16 fluid ounces of Milli-Q Plus water at 21° C. and stirred at 400 rpm. At each specified time point, an aliquot was obtained and filtered through a 0.45 μm PTFE membrane (Pall Life Sciences, Acrodisc CR 25, P/N 4501), and the filtrate was tested for valine, isoleucine, and leucine using the LC/UV method as described in Example 3.

[2] = Example 3: aqueous dissolution of powdered branched-chain amino acid blend (first material) with varying myo-inositol, LC/UV of filtrate; settings: for Dissolved amino acid (g per 16 oz.): 7.00 g BCAA blend, water 21° C., 400 rpm
Procedure: Example 3 evaluates the effect that varying the myo-inositol concentration has on the aqueous dissolution of branched-chain amino acids. Two branched-chain amino acid materials were tested. The first material tested was 7.00 grams of a powdered branched-chain amino acid blend comprising 50 wt. % leucine, 25 wt. % isoleucine, and 25 wt. % valine. The second material tested was 3.5 grams of powdered leucine. Each material was tested with varying levels of powdered myo-inositol, expressed as a percentage of 17.6 grams (e.g., a serving of powdered nutritional product). For example, 1% myo-inositol is 0.176 grams, 2% myo-inositol is 0.352 grams, and so forth. The branched-chain amino acid material and the specified amount of myo-inositol were added to 16 fluid ounces of Milli-Q Plus water at 21° C. and stirred at 400 rpm. After 30 seconds and 60 seconds of stirring, an aliquot was obtained and filtered through a 0.45 μm PTFE membrane (Pall Life Sciences, Acrodisc CR 25, P/N 4501), and the filtrate of the first material was tested for valine, isoleucine, and leucine using the LC/UV method described below, while the filtrate of the second material was tested for leucine using the same LC/UV method. The test results for the first material tested are shown in Table 3, while the test results for the second material tested are shown in Table 4.
as §1

[3] = Example 5: effect of inositol isomers on dissolution of L-leucine, LC/UV of filtrate; settings: for Leu dissolved at 30 seconds (g/16 oz.) / Leu dissolved at 60 seconds (% of total Leu) / Leu dissolved at 60 seconds (g/16 oz.): 3.50 g L-leucine with 0.1 g/16 oz. inositol isomer, water 21° C., 400 rpm; for enhancement of dissolution rate of L-leucine by inositol isomer: 0.1 g isomer, 3.50 g L-leucine
Procedure: as §1, with “[…];” for “P/N AQ12S052546WT;”

[4] = myo-inositol 0% of 17.6 g, 30 seconds
[5] = myo-inositol 0% of 17.6 g, 60 seconds
[6] = myo-inositol 1% of 17.6 g, 30 seconds
[7] = myo-inositol 1% of 17.6 g, 60 seconds
[8] = myo-inositol 2% of 17.6 g, 30 seconds
[9] = myo-inositol 2% of 17.6 g, 60 seconds
[10] = myo-inositol 4% of 17.6 g, 30 seconds
[11] = myo-inositol 4% of 17.6 g, 60 seconds
[12] = myo-inositol 8% of 17.6 g, 30 seconds
[13] = myo-inositol 8% of 17.6 g, 60 seconds

Dissolved amino acid (g per 16 oz.) ([1]; myo-inositol 0%, 30 seconds): 0.978 g per 16 oz.
Dissolved amino acid (g per 16 oz.) ([1]; myo-inositol 0%, 60 seconds): 1.36 g per 16 oz.
Dissolved amino acid (g per 16 oz.) ([1]; myo-inositol 0%, 90 seconds): 1.50 g per 16 oz.
Dissolved amino acid (g per 16 oz.) ([1]; myo-inositol 0%, 240 seconds): 1.71 g per 16 oz.
Dissolved amino acid (g per 16 oz.) ([1]; myo-inositol 0%, 600 seconds): 1.74 g per 16 oz.
Dissolved amino acid (g per 16 oz.) ([1]; myo-inositol 1%, 30 seconds): 1.09 g per 16 oz.
Dissolved amino acid (g per 16 oz.) ([1]; myo-inositol 1%, 60 seconds): 1.39 g per 16 oz.
Dissolved amino acid (g per 16 oz.) ([1]; myo-inositol 1%, 90 seconds): 1.51 g per 16 oz.
Dissolved amino acid (g per 16 oz.) ([1]; myo-inositol 1%, 240 seconds): 1.71 g per 16 oz.
Dissolved amino acid (g per 16 oz.) ([1]; myo-inositol 1%, 600 seconds): 1.71 g per 16 oz.
Dissolved amino acid (g per 16 oz.) ([1]; myo-inositol 2%, 30 seconds): 1.07 g per 16 oz.
Dissolved amino acid (g per 16 oz.) ([1]; myo-inositol 2%, 60 seconds): 1.33 g per 16 oz.
Dissolved amino acid (g per 16 oz.) ([1]; myo-inositol 2%, 90 seconds): 1.46 g per 16 oz.
Dissolved amino acid (g per 16 oz.) ([1]; myo-inositol 2%, 240 seconds): 1.66 g per 16 oz.
Dissolved amino acid (g per 16 oz.) ([1]; myo-inositol 2%, 600 seconds): 1.70 g per 16 oz.
Dissolved amino acid (g per 16 oz.) ([1]; myo-inositol 4%, 30 seconds): 1.14 g per 16 oz.
Dissolved amino acid (g per 16 oz.) ([1]; myo-inositol 4%, 60 seconds): 1.39 g per 16 oz.
Dissolved amino acid (g per 16 oz.) ([1]; myo-inositol 4%, 90 seconds): 1.52 g per 16 oz.
Dissolved amino acid (g per 16 oz.) ([1]; myo-inositol 4%, 240 seconds): 1.70 g per 16 oz.
Dissolved amino acid (g per 16 oz.) ([1]; myo-inositol 4%, 600 seconds): 1.72 g per 16 oz.
Dissolved amino acid (g per 16 oz.) ([1]; myo-inositol 8%, 30 seconds): 1.09 g per 16 oz.
Dissolved amino acid (g per 16 oz.) ([1]; myo-inositol 8%, 60 seconds): 1.38 g per 16 oz.
Dissolved amino acid (g per 16 oz.) ([1]; myo-inositol 8%, 90 seconds): 1.48 g per 16 oz.
Dissolved amino acid (g per 16 oz.) ([1]; myo-inositol 8%, 240 seconds): 1.72 g per 16 oz.
Dissolved amino acid (g per 16 oz.) ([1]; myo-inositol 8%, 600 seconds): 1.74 g per 16 oz.
Dissolved amino acid (g per 16 oz.) [2, 4]: 0.237 g per 16 oz.
Dissolved amino acid (g per 16 oz.) [2, 5]: 0.495 g per 16 oz.
Dissolved amino acid (g per 16 oz.) [2, 6]: 0.504 g per 16 oz.
Dissolved amino acid (g per 16 oz.) [2, 7]: 0.908 g per 16 oz.
Dissolved amino acid (g per 16 oz.) [2, 8]: 0.337 g per 16 oz.
Dissolved amino acid (g per 16 oz.) [2, 9]: 0.714 g per 16 oz.
Dissolved amino acid (g per 16 oz.) [2, 10]: 0.416 g per 16 oz.
Dissolved amino acid (g per 16 oz.) [2, 11]: 0.791 g per 16 oz.
Dissolved amino acid (g per 16 oz.) [2, 12]: 0.546 g per 16 oz.
Dissolved amino acid (g per 16 oz.) [2, 13]: 0.972 g per 16 oz.
SMILES: CC[C@H](C)[C@H](N)C(=O)O [Isoleucine, L-Isoleucine]

Leu dissolved at 30 seconds (g/16 oz.) [3]: 0.472 g/16 oz.
Leu dissolved at 60 seconds (% of total Leu) [3]: 24.2 % of total Leu
Leu dissolved at 60 seconds (g/16 oz.) [3]: 0.848 g/16 oz.
SMILES: OC1C(O)C(O)C(O)C(O)C1O [L-chiro-inositol]

Dissolved amino acid (g per 16 oz.) ([1]; myo-inositol 0%, 30 seconds): 1.30 g per 16 oz.
Dissolved amino acid (g per 16 oz.) ([1]; myo-inositol 0%, 60 seconds): 1.54 g per 16 oz.
Dissolved amino acid (g per 16 oz.) ([1]; myo-inositol 0%, 90 seconds): 1.62 g per 16 oz.
Dissolved amino acid (g per 16 oz.) ([1]; myo-inositol 0%, 240 seconds): 1.69 g per 16 oz.
Dissolved amino acid (g per 16 oz.) ([1]; myo-inositol 0%, 600 seconds): 1.70 g per 16 oz.
Dissolved amino acid (g per 16 oz.) ([1]; myo-inositol 1%, 30 seconds): 1.39 g per 16 oz.
Dissolved amino acid (g per 16 oz.) ([1]; myo-inositol 1%, 60 seconds): 1.59 g per 16 oz.
Dissolved amino acid (g per 16 oz.) ([1]; myo-inositol 1%, 90 seconds): 1.65 g per 16 oz.
Dissolved amino acid (g per 16 oz.) ([1]; myo-inositol 1%, 240 seconds): 1.72 g per 16 oz.
Dissolved amino acid (g per 16 oz.) ([1]; myo-inositol 1%, 600 seconds): 1.72 g per 16 oz.
Dissolved amino acid (g per 16 oz.) ([1]; myo-inositol 2%, 30 seconds): 1.38 g per 16 oz.
Dissolved amino acid (g per 16 oz.) ([1]; myo-inositol 2%, 60 seconds): 1.55 g per 16 oz.
Dissolved amino acid (g per 16 oz.) ([1]; myo-inositol 2%, 90 seconds): 1.63 g per 16 oz.
Dissolved amino acid (g per 16 oz.) ([1]; myo-inositol 2%, 240 seconds): 1.70 g per 16 oz.
Dissolved amino acid (g per 16 oz.) ([1]; myo-inositol 2%, 600 seconds): 1.70 g per 16 oz.
Dissolved amino acid (g per 16 oz.) ([1]; myo-inositol 4%, 30 seconds): 1.44 g per 16 oz.
Dissolved amino acid (g per 16 oz.) ([1]; myo-inositol 4%, 60 seconds): 1.57 g per 16 oz.
Dissolved amino acid (g per 16 oz.) ([1]; myo-inositol 4%, 90 seconds): 1.64 g per 16 oz.
Dissolved amino acid (g per 16 oz.) ([1]; myo-inositol 4%, 240 seconds): 1.70 g per 16 oz.
Dissolved amino acid (g per 16 oz.) ([1]; myo-inositol 4%, 600 seconds): 1.70 g per 16 oz.
Dissolved amino acid (g per 16 oz.) ([1]; myo-inositol 8%, 30 seconds): 1.36 g per 16 oz.
Dissolved amino acid (g per 16 oz.) ([1]; myo-inositol 8%, 60 seconds): 1.56 g per 16 oz.
Dissolved amino acid (g per 16 oz.) ([1]; myo-inositol 8%, 90 seconds): 1.62 g per 16 oz.
Dissolved amino acid (g per 16 oz.) ([1]; myo-inositol 8%, 240 seconds): 1.69 g per 16 oz.
Dissolved amino acid (g per 16 oz.) ([1]; myo-inositol 8%, 600 seconds): 1.69 g per 16 oz.
Dissolved amino acid (g per 16 oz.) [2, 4]: 0.401 g per 16 oz.
Dissolved amino acid (g per 16 oz.) [2, 5]: 0.730 g per 16 oz.
Dissolved amino acid (g per 16 oz.) [2, 6]: 0.432 g per 16 oz.
Dissolved amino acid (g per 16 oz.) [2, 7]: 0.690 g per 16 oz.
Dissolved amino acid (g per 16 oz.) [2, 8]: 0.550 g per 16 oz.
Dissolved amino acid (g per 16 oz.) [2, 9]: 1.01 g per 16 oz.
Dissolved amino acid (g per 16 oz.) [2, 10]: 0.564 g per 16 oz.
Dissolved amino acid (g per 16 oz.) [2, 11]: 0.924 g per 16 oz.
Dissolved amino acid (g per 16 oz.) [2, 12]: 0.797 g per 16 oz.
Dissolved amino acid (g per 16 oz.) [2, 13]: 1.29 g per 16 oz.
SMILES: CC(C)[C@H](N)C(=O)O [Valine, L-Valine]
valine/myo-inositol correlation on a molar basis, slope of plot (FIG. 2) ([2]; first material, 30 second time point): one valine molecule dissolves for every two molecules of myo-inositol added

enhancement of dissolution rate of L-leucine by inositol isomer [3]: most enhanced
Leu dissolved at 30 seconds (g/16 oz.) [3]: 0.792 g/16 oz.
Leu dissolved at 60 seconds (% of total Leu) [3]: 40.4 % of total Leu
Leu dissolved at 60 seconds (g/16 oz.) [3]: 1.41 g/16 oz.
SMILES: OC1C(O)C(O)C(O)C(O)C1O (centres unmarked) [allo-inositol]

enhancement of dissolution rate of L-leucine by inositol isomer [3]: most enhanced
Leu dissolved at 30 seconds (g/16 oz.) [3]: 0.649 g/16 oz.
Leu dissolved at 60 seconds (% of total Leu) [3]: 36.3 % of total Leu
Leu dissolved at 60 seconds (g/16 oz.) [3]: 1.27 g/16 oz.
SMILES: OC1C(O)C(O)C(O)C(O)C1O (stereo not drawn) [cis-inositol]

enhancement of dissolution rate of L-leucine by inositol isomer [3]: most enhanced
Leu dissolved at 30 seconds (g/16 oz.) [3]: 0.626 ± 0.223 g/16 oz.
Leu dissolved at 60 seconds (% of total Leu) [3]: 33.2 ± 10.6 % of total Leu
Leu dissolved at 60 seconds (g/16 oz.) [3]: 1.16 ± 0.37 g/16 oz.
SMILES: OC1C(O)C(O)C(O)C(O)C1O (stereo not drawn) [epi-inositol]

Leu dissolved at 30 seconds (g/16 oz.) [3]: 0.379 g/16 oz.
Leu dissolved at 60 seconds (% of total Leu) [3]: 21.5 % of total Leu
Leu dissolved at 60 seconds (g/16 oz.) [3]: 0.751 g/16 oz.
SMILES: OC1C(O)C(O)C(O)C(O)C1O (centres unmarked) [muco-inositol]

Leu dissolved at 30 seconds (g/16 oz.) [3]: 0.450 g/16 oz.
Leu dissolved at 60 seconds (% of total Leu) [3]: 24.0 % of total Leu
Leu dissolved at 60 seconds (g/16 oz.) [3]: 0.841 g/16 oz.
SMILES: O[C@H]1[C@H](O)[C@@H](O)[C@H](O)[C@@H](O)[C@@H]1O [scyllo-inositol]
